Data on 15 compounds can be found in patent US20120264755A1, “PYRIDINYL DERIVATIVES AS INHIBITORS OF ENZYME NICOTINAMIDE PHOSPHORIBOSYLTRANSFERASE” (TopoTarget, priority 2009, published 2012).

The assay deals with A2780 cells. In words: In vitro cell proliferation assay (WST-1 assay). The class given is cell-based. The settings on record: Homo sapiens, total incubation time 72 h, WST-1 readout. As for the experimental part:
A2780 cells were seeded in 96-well plates at 3×10^3 cells/well in 100 μL of culture medium, 8 wells were left empty for media only controls.
After 24 h the compound titrations were performed, in a separate dilution plate, by serially diluting the compounds of general formula (I) in culture medium. A 100 μL of each dilution was added to the plated cells, this was done in triplicate, and controls (e.g. DMSO and blanks) were included. The plates were incubated for 24 h at 37° C. in a CO2 incubator. The compound titrations were repeated in a separate dilution plate after 24 h. The media plus compound from the assay plates were then aspirated. A 100 μL of media was then added to all wells, followed by 100 μL of each compound dilution. The plates were incubated for a further 48 h at 37° C. in a CO2 incubator (total incubation time 72 h). The number of viable cells was then assessed using Cell Proliferation Reagent WST-1. 10 μL of WST-1 reagent added to each well and incubated for one to four hours at 37° C. in CO2 incubator. The absorbance was measured (450 nm/690 nm).
The activity of compounds of general formula (I) in reducing the number of viable cells was calculated as:
% activity=[(S^c−B)/(S^o−B)]×100
S^c denotes signal measured in the presence of test compound, S^o denotes signal detected in the absence of compound, and B denotes background signal, measured in blank wells containing medium only. Analyse data using GraphPad Prism.
In general terms: Tetrazolium assays rely on reduction of a dye to a coloured formazan, in cell work by metabolically active cells.

As usually defined, the IC50 is the concentration needed to halve the response being measured. Low readings indicate greater potency in that assay, high ones weaker potency in that assay. In turn, `N#CN=C(NCCCCCCOc1ccc(Cl)cc1)Nc1ccncc1` [CHS828, 1-(6-(4-chlorophenoxy)hexyl)-2-cyano-3-(pyridine-4-yl)guanidine, reference compound] had an IC50 of 0.52 nM.

Regarding `N#C/N=C(\NCCCCCCCN(CCCN1CCOCC1)C1CCCCC1)Nc1ccncc1` [Compound 1002, 2-cyano-1-(7-(cyclohexyl(3-morpholinopropyl)amino)heptyl)-3-(pyridin-4-yl)guanidine], the IC50 stood at 2.03 nM. This IC50 lies about 3.9-fold higher than the previous one.

For the compound `O=C(NCCCCCCCCN(CCCN1CCOCC1)C(=O)c1ccccc1)NCc1cccnc1` [Compound 1073, N-(3-morpholinopropyl)-N-(8-(3-(Pyridin-3-ylmethyl)ureido)octyl)benzamide], the 50% inhibitory concentration (IC50) turned out to be 0.31 nM.

The compound `N#C/N=C(\NCCCCCCCCN(CCCN1CCOCC1)S(=O)(=O)c1ccccc1)Nc1ccncc1` [Compound 1035, N-(8-(2-cyano-3-(pyridin-4-yl)guanidino)octyl)-N-(3-morpholinopropyl)benzenesulfonamide] came in with an IC50 of 0.042 nM. This IC50 is about 7.4-fold lower than that of the compound before.

`CCON(CCCCCCCCN/C(=N\C#N)Nc1ccncc1)Cc1ccccc1` [Compound 1085, 1-(8-(benzyl(ethoxy)amino)octyl)-2-cyano-3-(pyridin-4-yl)guanidine]: the IC50 was 0.062 nM.

Regarding `O=c1c(NCCCCCCCN(OC2CCCCO2)S(=O)(=O)Cc2ccccc2)c(Nc2ccncc2)c1=O` (stereo not drawn) [Compound 1056, N-(7-(3,4-Dioxo-2-(pyridin-4-ylamino)cyclobut-1-enylamino)heptyl)-1-Phenyl-N-(tetrahydro-2H-pyran-2-yloxy)methanesulfonamide], inhibition was half-maximal at 0.35 nM (IC50).

Regarding `CS(=O)(=O)N(CCCCCN/C(=N\C#N)Nc1ccncc1)OCC1CCCCC1` [Compound 1143], the IC50 turned out to be 0.081 nM. This IC50 lies about 4.3-fold lower than the previous one.

Take `CCNC(=O)N(CCCCCCN/C(=N\C#N)Nc1ccncc1)OCC1CCCCC1` [Compound 1114, 1-(6-(2-cyano-3-(pyridin-4-yl)guanidino)hexyl)-1-(cyclohexylmethoxy)-3-ethylurea]: the IC50 was 0.057 nM.

Regarding `O=C(c1ccccc1)N(CCCCCCCCNC(=S)Nc1ccncc1)CCCN1CCOCC1` [Compound 1075, N-(3-morpholinopropyl)-N-(8-(3-(pyridin-4-yl)thioureido)octyl)benzamide], the IC50 was 0.39 nM.

In the case of `CS(=O)(=O)N(CCCCCCCN/C(=N\C#N)Nc1ccncc1)OCC1CCCCC1` [Compound 1118, N-(7-(2-cyano-3-(pyridin-4-yl)guanidino)heptyl)-N-(cyclohexylmethoxy)methanesulfonamide], the IC50 was determined as 0.046 nM. This IC50 lies about 8.5-fold lower than the previous one.

For `N#C/N=C(\NCCCCCCCN(CCCN1CCOCC1)S(=O)(=O)C1CCCCC1)Nc1ccncc1` [Compound 1010, N-(7-(2-cyano-3-(pyridin-4-yl)guanidino)heptyl)-N-(3-morpholinopropyl)cyclohexanesulfonamide], the IC50 was determined as 0.002 nM.

In the case of `O=C(/C=C/c1cccnc1)NCCCCCCCCN(CCCN1CCOCC1)C(=O)c1ccccc1` [Compound 1074, (E)-N-(3-morpholinopropyl)-N-(8-(3-(pyridin-3-yl)acrylamido)octyl)benzamide], the IC50 was 0.6 nM.

`O=c1c(NCCCCCCCN(CCCN2CCOCC2)S(=O)(=O)C2CCCC2)c(Nc2ccncc2)c1=O` [Compound 1019, N-(7-(3,4-dioxo-2-(pyridin-4-ylamino)cyclobut-1-enylamino)heptyl)-N-(3-morpholinopropyl)cyclopentanesulfonamide] showed an IC50 of 0.44 nM.

The compound `CCS(=O)(=O)N(CCCCCN/C(=N\C#N)Nc1ccncc1)OCC1CCCCC1` [Compound 1144] showed a 50% inhibitory concentration (IC50) of 0.037 nM.

In turn, `CCS(=O)(=O)N(CCCCCCN/C(=N\C#N)Nc1ccncc1)OCC1CCCCC1` [Compound 1138, N-(6-(2-cyano-3-(pyridin-4-yl)guanidino)hexyl)-N-(cyclohexylmethoxy)ethane-2-sulfonamide] registered an IC50 of 0.059 nM.
